Results taken from US10251402B2, “Methods and compositions for controlling leaf-cutting ant populations” (ISCA Technologies, Inc., priority 2015, dated 2019).
Read-outs that look alike come from different tables or passages of the source.

Columns and labels:
[1] = system: Leucoagaricus gongylophorus; assay: Fungistatic inhibition: fungal inoculations exposed to wells containing botanical oils, mycelial growth toward the well vs unexposed controls; format: cell-based; settings: 21 days exposure to well containing oil; mycelial growth toward well vs unexposed control
[2] = system: Leucoagaricus gongylophorus; settings: for Growth Evaluation: 30-day incubation, median of five replicates
Protocol: A similar lab trial was designed and performed to evaluate the fungicidal capacities of these botanical oils in addition to their fungistatic properties against L. gongylophorus. For this test, the plant oils were incorporated directly into the fungal growth medium at different concentrations (0.1, 1, and 5%). The growth of the fungus on this medium was evaluated after a 30-day incubation period, based on the quantity and density of the mycelium, according to the following pattern. Growth was characterized by the following measure: 5+ indicated growth identical to the control treatment (medium alone, with no plant oil treatment), or 100% growth; 4+ indicated growth equivalent to 80% of the control treatment growth; 3+ indicated 60%; 2+ indicated 40%; 1+ indicated 20%; and 0 indicated total elimination of the fungal colony.

Structure (SMILES): COC(=O)c1ccccc1O [Methyl Salicylate]
- Inhibition (%) of fungal growth (fungistatic) [1]: 100%
- fungal mortality [2]: 100%
- Growth Evaluation ([2]; concentration 0.1% in medium): 3+ (3+ indicated 60%)
- Growth Evaluation ([2]; concentration 1% in medium): 0
- Growth Evaluation ([2]; concentration 5% in medium): 0
